Data as given in patent US6673800B2, “4,5,-dihydroisoxazolylakylpiperazine derivatives having selective biological activity at dopamine D3 or D4 receptor, and preparation thereof” (Korea Institute of Science and Technology, priority 2000, dated 2004).
pIC50: −log10 of the molar value.

Key:
[1] = biological target: cloned human dopamine receptors D2 (Homo sapiens, UniProt P14416); assay: Binding affinity to dopamine receptor, radiolabeled ligand displacement (D2); parameters: Affinity to Dopamine Receptors (% Inhibition) D2: dose or concentration left out as unconfirmed
Sequence of cloned human dopamine receptors D2 (P14416 whole entry): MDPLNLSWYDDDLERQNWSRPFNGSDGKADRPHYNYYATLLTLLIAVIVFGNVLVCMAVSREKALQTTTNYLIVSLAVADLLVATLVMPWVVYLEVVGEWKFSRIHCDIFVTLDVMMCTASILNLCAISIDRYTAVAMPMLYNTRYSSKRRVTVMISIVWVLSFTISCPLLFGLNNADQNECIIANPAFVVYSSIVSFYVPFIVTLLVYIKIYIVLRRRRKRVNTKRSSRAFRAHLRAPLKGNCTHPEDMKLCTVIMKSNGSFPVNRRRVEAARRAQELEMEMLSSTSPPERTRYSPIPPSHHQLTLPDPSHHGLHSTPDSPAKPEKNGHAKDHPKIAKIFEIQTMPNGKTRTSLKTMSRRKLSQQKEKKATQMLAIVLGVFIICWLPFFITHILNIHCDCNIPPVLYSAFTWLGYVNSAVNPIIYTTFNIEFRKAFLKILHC
Experimental: (§1) Binding affinities of the compounds for dopamine receptors were determined indirectly by their ability to displace radiolabeled ligand from cloned human dopamine receptors. Compounds were incubated in receptor suspension to compete with the. radiolabeled ligand. The receptor-bound radiolabeled ligand was separated by filtering through Wallac glass fiber filtermat (GF/C) using Inotech cell harvester of 96-well format. The radioactivity bound to filter was counted by Micro-β counter (Wallac).
(§2) The aliquots of cloned human dopamine receptors stored at −70° C. were suspended in assay buffer and the content of receptor in each aliquot was determined by Bio-Rad DC protein assay kit to give an optimal protein (receptor) concentration obtained by preliminary receptor binding assay. Receptor suspension adjusted to optimal concentration was aliquoted in proper volume for assay and stored at −70° C. Binding assays of every compound were performed in duplicate and each different buffer solution was used for optimal assay with each subtype of dopamine receptors. Receptor binding assays were carried out in 96-well plates. Receptor suspension of 100 μl was incubated at 27° C. for 30-60 min in a final volume of 0.25 ml reaction mixture containing 50 μl of hot-ligand and 10 μl of test compound.
(§3) After incubation, the reaction mixture was washed with ice-cold 50 mM Tris-acetate buffer by rapid filtration using a Inotech cell harvester (Inotech, Switzerland) through Whatman GF/C glass fiber filter presoaked in the assay buffer. The filter was covered with MeltiLex, sealed in a sample bag followed by drying in the microwave, and counted by MicroBeta Plus(Wallac, Finland) at a counting efficiency of 30-40%.

[2] = biological target: cloned human dopamine receptors D3 (Homo sapiens, UniProt P35462); assay: Binding affinity to dopamine receptor, radiolabeled ligand displacement (D3); parameters: Affinity to Dopamine Receptors (% Inhibition) D3: dose or concentration left out as unconfirmed
Sequence of cloned human dopamine receptors D3 (P35462 whole entry): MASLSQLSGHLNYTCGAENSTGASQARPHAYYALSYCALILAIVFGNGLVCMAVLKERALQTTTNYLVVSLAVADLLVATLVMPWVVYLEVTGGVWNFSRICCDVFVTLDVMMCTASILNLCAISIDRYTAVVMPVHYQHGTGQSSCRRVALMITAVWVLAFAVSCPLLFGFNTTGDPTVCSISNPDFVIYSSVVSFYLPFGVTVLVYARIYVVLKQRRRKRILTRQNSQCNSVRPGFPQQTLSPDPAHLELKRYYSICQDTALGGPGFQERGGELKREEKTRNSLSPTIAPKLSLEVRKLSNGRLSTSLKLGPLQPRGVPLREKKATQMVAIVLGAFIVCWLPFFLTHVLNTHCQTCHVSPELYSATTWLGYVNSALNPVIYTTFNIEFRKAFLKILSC
Experimental: as §1, §2, §3

[3] = biological target: cloned human dopamine receptors D1 (Homo sapiens, UniProt P21728); assay: Binding affinity to dopamine receptor, radiolabeled ligand displacement (D1); parameters: dose or concentration left out as unconfirmed
Sequence of cloned human dopamine receptors D1 (P21728 whole entry): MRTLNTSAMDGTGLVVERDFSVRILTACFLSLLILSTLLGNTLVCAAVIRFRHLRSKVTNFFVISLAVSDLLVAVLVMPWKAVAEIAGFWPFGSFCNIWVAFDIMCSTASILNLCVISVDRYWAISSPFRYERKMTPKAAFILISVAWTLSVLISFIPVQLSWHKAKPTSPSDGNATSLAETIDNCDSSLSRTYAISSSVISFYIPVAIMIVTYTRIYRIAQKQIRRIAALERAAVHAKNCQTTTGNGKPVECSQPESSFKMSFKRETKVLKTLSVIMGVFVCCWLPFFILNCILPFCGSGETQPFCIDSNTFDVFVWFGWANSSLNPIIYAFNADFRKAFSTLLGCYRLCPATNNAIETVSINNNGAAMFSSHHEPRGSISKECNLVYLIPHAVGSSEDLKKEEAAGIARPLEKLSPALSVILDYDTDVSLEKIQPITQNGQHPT
Experimental: as §1, §2, §3

[4] = biological target: T1, cloned human dopamine receptors D4 (Homo sapiens, UniProt P21917); assay: Binding affinity to dopamine receptor, radiolabeled ligand displacement (D4); parameters: Affinity to Dopamine Receptors (% Inhibition) D4: dose or concentration left out as unconfirmed
T1 sequence (P21917 1-419): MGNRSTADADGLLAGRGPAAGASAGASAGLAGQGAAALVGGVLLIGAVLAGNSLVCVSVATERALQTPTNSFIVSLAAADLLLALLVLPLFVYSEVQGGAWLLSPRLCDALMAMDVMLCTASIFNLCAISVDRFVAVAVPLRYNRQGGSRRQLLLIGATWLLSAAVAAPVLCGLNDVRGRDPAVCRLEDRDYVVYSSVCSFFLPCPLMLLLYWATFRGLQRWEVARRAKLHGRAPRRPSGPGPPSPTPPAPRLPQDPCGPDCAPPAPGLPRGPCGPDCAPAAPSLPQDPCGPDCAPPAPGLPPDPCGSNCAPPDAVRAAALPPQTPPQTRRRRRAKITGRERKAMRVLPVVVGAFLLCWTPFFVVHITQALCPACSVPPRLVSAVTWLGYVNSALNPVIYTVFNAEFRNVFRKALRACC
Experimental: as §1, §2, §3

## CCOc1ccccc1N1CCN(CCCC2CC(c3cccs3)=NO2)CC1 (racemic) [Compound No. 30]
[1]
  Affinity to Dopamine Receptors (% Inhibition) D2: 88.2%
  pIC50: 6.33
[2]
  Affinity to Dopamine Receptors (% Inhibition) D3: 101.2%
  pIC50: 8.40
[3]
  Affinity to Dopamine Receptors (% Inhibition) D1: 57.8%
[4]
  Affinity to Dopamine Receptors (% Inhibition) D4: 102.3%
  pIC50: 7.96

## COc1ccccc1N1CCN(CCCCC2CC(c3ccccc3)=NO2)CC1 (racemic) [Compound No. 34]
[1]
  Affinity to Dopamine Receptors (% Inhibition) D2: 58.3%
[2]
  Affinity to Dopamine Receptors (% Inhibition) D3: 83.8%
[3]
  Affinity to Dopamine Receptors (% Inhibition) D1: 23.6%
[4]
  Affinity to Dopamine Receptors (% Inhibition) D4: 100.1%

## CCOc1ccccc1N1CCN(CCCC2CC(c3ccc(OC)c(OC)c3)=NO2)CC1 (racemic) [Compound No. 29]
[1]
  Affinity to Dopamine Receptors (% Inhibition) D2: 83.5%
  pIC50: 6.96
[3]
  Affinity to Dopamine Receptors (% Inhibition) D1: 40.1%
[4]
  Affinity to Dopamine Receptors (% Inhibition) D4: 57.4%
  pIC50: 6.97

## COc1ccc(C2=NOC(CCCN3CCN(c4ccccc4OC)CC3)C2)cc1OC (stereo not shown) [Compound No. 9]
[1]
  Affinity to Dopamine Receptors (% Inhibition) D2: 57.7%
  pIC50: 5.84
[2]
  Affinity to Dopamine Receptors (% Inhibition) D3: 101.2%
  pIC50: 8.30
[3]
  Affinity to Dopamine Receptors (% Inhibition) D1: 19.6%
[4]
  Affinity to Dopamine Receptors (% Inhibition) D4: 104.4%
  pIC50: 7.64

## COc1ccccc1N1CCN(CCCC2CC(c3cccs3)=NO2)CC1 (stereo not shown) [Compound No. 10]
[1]
  Affinity to Dopamine Receptors (% Inhibition) D2: 56.0%
  pIC50: 5.71
[2]
  Affinity to Dopamine Receptors (% Inhibition) D3: 99.9%
  pIC50: 7.72
[3]
  Affinity to Dopamine Receptors (% Inhibition) D1: 19.9%
[4]
  Affinity to Dopamine Receptors (% Inhibition) D4: 103.6%
  pIC50: 7.47

## COc1ccc(C2=NOC(CCCN3CCN(c4ccccc4)CC3)C2)cc1OC (stereo not shown) [Compound No. 7]
[1]
  Affinity to Dopamine Receptors (% Inhibition) D2: 49.0%
  pIC50: 5.03
[2]
  Affinity to Dopamine Receptors (% Inhibition) D3: 102.5%
  pIC50: 7.68
[3]
  Affinity to Dopamine Receptors (% Inhibition) D1: 9.0%
[4]
  Affinity to Dopamine Receptors (% Inhibition) D4: 103.9%
  pIC50: 7.15
